Results reported in ChEMBL document CHEMBL4130375, “Design, synthesis and biological evaluation of 4-amidobenzimidazole acridine derivatives as dual PARP and Topo inhibitors for cancer therapy” (Eur J Med Chem, 2017).
Calls of active or inactive are those of the source. No cut-off for these calls is given here.

Columns and labels:
[1] = system: MCF7; experiment: Potency index, ratio of m-AMSA IC50 to compound IC50 for human MCF7 cells; format: functional
[2] = system: HCC1937; experiment: Antiproliferative activity against human HCC1937 cells harboring BRCA1 mutant after 72 hrs by MTT assay; format: functional, cell-based; conditions: HCC1937, 72 h
[3] = system: HCT-116; experiment: Potency index, ratio of m-AMSA IC50 to compound IC50 for human HCT116 cells expressing topoisomerase-1; format: functional
[4] = molecular target: T1, DNA topoisomerase 1 (Homo sapiens) (UniProt P11387); experiment: Inhibition of topoisomerase-1 in human MCF7 cells assessed as enzyme-DNA cleavage complex formation by measuring decrease in topoisomerase-1 protein expression after 24 hrs by Western blot analysis; format: cell-based
T1 sequence (whole entry): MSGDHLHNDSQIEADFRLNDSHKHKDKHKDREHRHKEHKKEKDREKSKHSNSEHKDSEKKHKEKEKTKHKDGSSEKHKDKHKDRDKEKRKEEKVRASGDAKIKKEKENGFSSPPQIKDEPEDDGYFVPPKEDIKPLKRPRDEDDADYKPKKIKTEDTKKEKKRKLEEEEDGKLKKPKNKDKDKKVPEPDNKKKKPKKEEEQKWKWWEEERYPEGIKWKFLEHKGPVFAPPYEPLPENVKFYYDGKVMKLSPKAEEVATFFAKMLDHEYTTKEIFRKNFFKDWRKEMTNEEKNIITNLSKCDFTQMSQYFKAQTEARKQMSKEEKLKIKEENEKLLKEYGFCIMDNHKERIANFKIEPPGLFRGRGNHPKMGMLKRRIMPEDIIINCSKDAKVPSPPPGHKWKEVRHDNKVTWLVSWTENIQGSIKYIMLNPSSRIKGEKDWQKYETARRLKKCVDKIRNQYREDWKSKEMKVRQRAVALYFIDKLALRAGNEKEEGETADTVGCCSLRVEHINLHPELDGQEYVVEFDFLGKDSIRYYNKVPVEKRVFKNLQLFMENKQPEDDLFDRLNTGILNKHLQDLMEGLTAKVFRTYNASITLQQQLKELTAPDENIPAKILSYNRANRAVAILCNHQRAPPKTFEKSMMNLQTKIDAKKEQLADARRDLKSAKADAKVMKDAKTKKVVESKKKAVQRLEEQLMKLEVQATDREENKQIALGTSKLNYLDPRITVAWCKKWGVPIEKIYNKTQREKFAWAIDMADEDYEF

[5] = molecular target: DNA topoisomerase 2-alpha (Homo sapiens) (UniProt P11388); experiment: Poison activity at topoisomerase-2 in human MCF7 cells assessed as enzyme-DNA complex formation by measuring decrease in topoisomerase-2 protein expression after 24 hrs by Western blot analysis; format: cell-based
[6] = system: MCF7; experiment: Induction of DNA double strand breaks in human MCF7 cells assessed as increase in 53BP1 level after 24 hrs by Western blot analysis; format: functional, cell-based
[7] = system: MCF7; experiment: Induction of apoptosis in human MCF7 cells assessed as early apoptotic cells at 1 uM after 48 hrs by Annexin V-FITC/propidium iodide staining based flow cytometry (reference value: 0.108%); format: functional
[8] = system: MCF7; experiment: Induction of apoptosis in human MCF7 cells assessed as late apoptotic cells at 1 uM after 48 hrs by Annexin V-FITC/propidium iodide staining based flow cytometry (reference value: 0%); format: functional
[9] = system: MCF7; experiment: Induction of apoptosis in human MCF7 cells assessed as live cells at 5 uM after 48 hrs by Annexin V-FITC/propidium iodide staining based flow cytometry (reference value: 99.9%); format: functional
[10] = system: MCF7; experiment: Induction of apoptosis in human MCF7 cells assessed as live cells at 10 uM after 48 hrs by Annexin V-FITC/propidium iodide staining based flow cytometry (reference value: 99.9%); format: functional
[11] = system: MCF7; experiment: Induction of apoptosis in human MCF7 cells assessed as early apoptotic cells at 10 uM after 48 hrs by Annexin V-FITC/propidium iodide staining based flow cytometry (reference value: 0.108%); format: functional
[12] = system: MCF7; experiment: Induction of apoptosis in human MCF7 cells after 48 hrs by Annexin V-FITC/propidium iodide staining based flow cytometry; format: functional, cell-based
[13] = system: MCF7; experiment: Upregulation of cleaved caspase-3 protein expression in human MCF7 cells after 24 hrs by Western blot method; format: functional, cell-based
[14] = system: MCF7; experiment: Upregulation of cleaved PARP protein expression in human MCF7 cells after 24 hrs by Western blot method; format: functional, cell-based
[15] = system: MCF7; experiment: Cell cycle arrest in human MCF7 cells assessed as accumulation at G0/G1 phase at 1 uM after 24 hrs by propidium iodide staining based flow cytometry (reference value: 17.67 +/- 1.25%); format: functional
[16] = system: MCF7; experiment: Cell cycle arrest in human MCF7 cells assessed as accumulation at S phase at 1 uM after 24 hrs by propidium iodide staining based flow cytometry (reference value: 59.72 +/- 2.98%); format: functional
[17] = system: MCF7; experiment: Cell cycle arrest in human MCF7 cells assessed as accumulation at G0/G1 phase at 10 uM after 24 hrs by propidium iodide staining based flow cytometry (reference value: 17.67 +/- 1.25%); format: functional
[18] = system: MCF7; experiment: Cell cycle arrest in human MCF7 cells assessed as accumulation at G2/M phase at 10 uM after 24 hrs by propidium iodide staining based flow cytometry (reference value: 22.61 +/- 1.55%); format: functional
[19] = system: MCF7; experiment: Cell cycle arrest in human MCF7 cells after 24 hrs by propidium iodide staining based flow cytometry; format: functional
[20] = system: MCF7; experiment: Upregulation of p18 protein expression in human MCF7 cells after 24 hrs by Western blot method; format: functional, cell-based
[21] = system: MCF7; experiment: Upregulation of p21 protein expression in human MCF7 cells after 24 hrs by Western blot method; format: functional, cell-based
[22] = system: MCF7; experiment: Downregulation of CDK4 protein expression in human MCF7 cells up to 10 uM after 24 hrs by Western blot method; format: functional, cell-based
[23] = system: MCF7; experiment: Downregulation of CyclinA protein expression in human MCF7 cells up to 10 uM after 24 hrs by Western blot method; format: functional, cell-based
[24] = Half life in mouse liver microsomes at 1.11 uM preincubated for 5 mins followed by NADPH addition by LC-MS/MS analysis; format: ADME, microsome
[25] = Half life in rat liver microsomes at 1.11 uM preincubated for 5 mins followed by NADPH addition by LC-MS/MS analysis; format: ADME, microsome
[26] = Intrinsic clearance in rat liver microsomes at 1.11 uM preincubated for 5 mins followed by NADPH addition by LC-MS/MS analysis; format: ADME, microsome; conditions: read-out: CLH
[27] = system: MCF7; experiment: cells; conditions: Homo sapiens, MCF7, 72 h

DNA topoisomerase 2-alpha (Homo sapiens), sequence (P11388 whole entry): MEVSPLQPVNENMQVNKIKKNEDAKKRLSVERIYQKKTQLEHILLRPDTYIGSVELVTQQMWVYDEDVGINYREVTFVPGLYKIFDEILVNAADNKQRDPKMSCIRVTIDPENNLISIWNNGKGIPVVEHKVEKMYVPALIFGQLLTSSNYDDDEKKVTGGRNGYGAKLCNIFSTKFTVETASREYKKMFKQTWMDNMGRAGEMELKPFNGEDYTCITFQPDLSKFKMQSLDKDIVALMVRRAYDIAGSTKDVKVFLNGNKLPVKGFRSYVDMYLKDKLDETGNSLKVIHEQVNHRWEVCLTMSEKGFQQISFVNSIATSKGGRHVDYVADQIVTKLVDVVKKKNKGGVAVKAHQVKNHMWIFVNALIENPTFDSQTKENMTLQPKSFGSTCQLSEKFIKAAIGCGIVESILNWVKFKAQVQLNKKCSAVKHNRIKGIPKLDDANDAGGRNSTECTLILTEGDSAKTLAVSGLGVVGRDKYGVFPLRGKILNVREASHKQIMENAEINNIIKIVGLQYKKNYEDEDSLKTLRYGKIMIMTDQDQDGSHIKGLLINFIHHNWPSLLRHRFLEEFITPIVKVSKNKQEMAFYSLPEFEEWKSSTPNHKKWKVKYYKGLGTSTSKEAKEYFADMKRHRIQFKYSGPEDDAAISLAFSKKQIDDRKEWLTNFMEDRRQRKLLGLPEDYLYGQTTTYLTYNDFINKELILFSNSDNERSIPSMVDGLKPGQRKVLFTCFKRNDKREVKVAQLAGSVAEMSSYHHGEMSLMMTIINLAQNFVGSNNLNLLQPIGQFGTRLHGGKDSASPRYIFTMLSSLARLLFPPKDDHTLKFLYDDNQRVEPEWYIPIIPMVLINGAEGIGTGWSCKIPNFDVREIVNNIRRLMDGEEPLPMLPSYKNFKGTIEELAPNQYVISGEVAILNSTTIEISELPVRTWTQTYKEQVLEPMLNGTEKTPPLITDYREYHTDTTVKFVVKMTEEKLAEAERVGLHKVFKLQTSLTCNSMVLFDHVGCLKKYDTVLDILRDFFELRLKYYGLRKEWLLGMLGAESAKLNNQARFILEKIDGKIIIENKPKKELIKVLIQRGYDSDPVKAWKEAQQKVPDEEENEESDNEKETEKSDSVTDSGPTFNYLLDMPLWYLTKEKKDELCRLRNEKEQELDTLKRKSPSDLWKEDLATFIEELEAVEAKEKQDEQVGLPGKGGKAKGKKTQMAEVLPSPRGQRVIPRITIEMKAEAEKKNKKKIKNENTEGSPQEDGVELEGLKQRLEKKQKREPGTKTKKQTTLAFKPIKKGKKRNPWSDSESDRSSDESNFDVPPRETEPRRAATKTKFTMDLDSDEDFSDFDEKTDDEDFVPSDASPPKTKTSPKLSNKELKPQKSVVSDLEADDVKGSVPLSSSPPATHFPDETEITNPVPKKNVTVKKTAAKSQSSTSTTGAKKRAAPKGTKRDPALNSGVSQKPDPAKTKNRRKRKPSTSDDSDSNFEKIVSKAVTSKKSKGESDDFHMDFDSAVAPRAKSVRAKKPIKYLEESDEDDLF

IC50 [2]: 830 nM
inhibition [4]: Dose-dependent effect
half-life at 1.11 µM [24]: 1.44 h
half-life at 1.11 µM [25]: 0.58 h
microsomal CLint at 1.11 µM [26]: 28.4 µL/min/mg
IC50 [27]: 2140 nM
SMILES: Cc1cccc2c(Nc3cccc(-c4nc5c(C(N)=O)cccc5[nH]4)c3)c3ccccc3nc12
Ratio IC50 [1]: 4
Ratio IC50 [3]: 2.7
Activity [5]: Dose-dependent effect
Activity [6]: Dose-dependent effect
Activity [7]: 34.4%
Activity [8]: 22.2%
Activity [9]: 39.1%
Activity [10]: 8.18%
Activity [11]: 9.58%
Activity [12]: Dose-dependent effect
Activity [13]: Dose-dependent effect
Activity [14]: Dose-dependent effect
Activity [15]: 19.96%
Activity [16]: 58.27%
Activity [17]: 58.27%
Activity [18]: 10.83%
Activity [19]: Dose-dependent effect
Activity [20]: Dose-dependent effect
Activity [21]: Dose-dependent effect
Activity [22]: Active
Activity [23]: Active
